# Laboratory results as given in PubChem BioAssay (NCI).
#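 GI50 is the concentration that inhibits growth by half. TGI denotes the concentration required for complete inhibition of growth.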
# Assays:
# Experiment in all cases: NCI-60 cell line screen, 384-well format
# MALME-3M melanoma = tested on: MALME-3M melanoma
# HCC-2998 colon = tested on: HCC-2998 colon
# COLO 205 colon = tested on: COLO 205 colon
# SK-MEL-5 melanoma = tested on: SK-MEL-5 melanoma
# UACC-62 melanoma = tested on: UACC-62 melanoma
# DU-145 prostate = tested on: DU-145 prostate
# LOX IMVI melanoma = tested on: LOX IMVI melanoma
# MDA-MB-435 melanoma = tested on: MDA-MB-435 melanoma
# MDA-MB-231 breast = tested on: MDA-MB-231 breast
# OVCAR-4 ovarian = tested on: OVCAR-4 ovarian
# KM12 colon = tested on: KM12 colon
# OVCAR-3 ovarian = tested on: OVCAR-3 ovarian
# SF-268 CNS = tested on: SF-268 CNS
# NCI-H23 lung = tested on: NCI-H23 lung
# SNB-19 CNS = tested on: SNB-19 CNS
# NCI-H522 lung = tested on: NCI-H522 lung
# K-562 leukemia = tested on: K-562 leukemia
# UACC-257 melanoma = tested on: UACC-257 melanoma
# CCRF-CEM leukemia = tested on: CCRF-CEM leukemia
# HOP-92 NSCLC = tested on: HOP-92 NSCLC
# T-47D breast = tested on: T-47D breast
# RPMI-8226 leukemia = tested on: RPMI-8226 leukemia
# SK-MEL-28 melanoma = tested on: SK-MEL-28 melanoma
# HOP-62 NSCLC = tested on: HOP-62 NSCLC
# SK-OV-3 ovarian = tested on: SK-OV-3 ovarian
# HT29 colon = tested on: HT29 colon
# MCF7 breast = tested on: MCF7 breast
# OVCAR-5 ovarian = tested on: OVCAR-5 ovarian
# NCI-H322M lung = tested on: NCI-H322M lung
structure (smiles),measurement,setting,value
O=C(NCC(F)(F)F)Nc1cccc(-c2cnc3cc(-c4ccc(F)cc4)ccn23)c1,GI50,MALME-3M melanoma,498 nM
same,TGI,MALME-3M melanoma,14500 nM
same,GI50,HCC-2998 colon,705 nM
same,TGI,HCC-2998 colon,9270 nM
same,GI50,COLO 205 colon,451 nM
same,TGI,COLO 205 colon,3530 nM
same,GI50,SK-MEL-5 melanoma,444 nM
same,TGI,SK-MEL-5 melanoma,9920 nM
same,GI50,UACC-62 melanoma,559 nM
same,TGI,UACC-62 melanoma,12400 nM
same,GI50,DU-145 prostate,3130 nM
same,TGI,DU-145 prostate,18400 nM
same,GI50,LOX IMVI melanoma,741 nM
same,TGI,LOX IMVI melanoma,8310 nM
same,GI50,MDA-MB-435 melanoma,210 nM
same,TGI,MDA-MB-435 melanoma,457 nM
same,GI50,MDA-MB-231 breast,650 nM
same,TGI,MDA-MB-231 breast,19300 nM
same,GI50,OVCAR-4 ovarian,571 nM
same,TGI,OVCAR-4 ovarian,5640 nM
same,GI50,KM12 colon,400 nM
same,TGI,KM12 colon,11900 nM
same,GI50,OVCAR-3 ovarian,484 nM
same,TGI,OVCAR-3 ovarian,2250 nM
same,GI50,SF-268 CNS,1810 nM
same,TGI,SF-268 CNS,9050 nM
same,GI50,NCI-H23 lung,1020 nM
same,TGI,NCI-H23 lung,3560 nM
same,GI50,SNB-19 CNS,1460 nM
same,TGI,SNB-19 CNS,6950 nM
same,GI50,NCI-H522 lung,292 nM
same,TGI,NCI-H522 lung,899 nM
same,GI50,K-562 leukemia,362 nM
same,TGI,K-562 leukemia,1200 nM
same,GI50,UACC-257 melanoma,1850 nM
same,TGI,UACC-257 melanoma,14600 nM
same,GI50,CCRF-CEM leukemia,734 nM
same,TGI,CCRF-CEM leukemia,2030 nM
same,GI50,HOP-92 NSCLC,1710 nM
same,TGI,HOP-92 NSCLC,8880 nM
same,GI50,T-47D breast,862 nM
same,TGI,T-47D breast,7450 nM
same,GI50,RPMI-8226 leukemia,575 nM
same,TGI,RPMI-8226 leukemia,1830 nM
same,GI50,SK-MEL-28 melanoma,2320 nM
same,TGI,SK-MEL-28 melanoma,17900 nM
same,GI50,HOP-62 NSCLC,688 nM
same,TGI,HOP-62 NSCLC,11000 nM
same,GI50,SK-OV-3 ovarian,631 nM
same,TGI,SK-OV-3 ovarian,7870 nM
same,GI50,HT29 colon,367 nM
same,TGI,HT29 colon,1570 nM
same,GI50,MCF7 breast,804 nM
same,TGI,MCF7 breast,12500 nM
same,GI50,OVCAR-5 ovarian,4040 nM
same,TGI,OVCAR-5 ovarian,25500 nM
same,GI50,NCI-H322M lung,3680 nM
same,TGI,NCI-H322M lung,21200 nM
